Columns and labels:
Test in all cases: MIC, antibacterial and synergistic activity
Format in all cases: cell-based
E. coli JMI 4080 = conditions: for MIC Aztreonam + inhibitor / MIC Ceftazidime + inhibitor / MIC Meropenem + inhibitor: E. coli JMI 4080 (Tem-10); for MIC Aztreonam + inhibitor: Aztreonam + inhibitor at 4 µg/mL; for MIC Ceftazidime + inhibitor: Ceftazidime + inhibitor at 4 µg/mL; for MIC Meropenem + inhibitor: Meropenem + inhibitor at 4 µg/mL; for MIC: Escherichia coli, JMI4080, E. coli JMI 4080 (Tem-10), substance alone
E. coli JMI 10767 = E. coli JMI 10767 (Wt); for MIC Aztreonam + inhibitor: Aztreonam + inhibitor at 4 µg/mL; for MIC Ceftazidime + inhibitor: Ceftazidime + inhibitor at 4 µg/mL
Procedure: (§1) In the Tables 10 - 12, compounds herein disclosed were tested in combination with various antibiotics against metallo β-lactamase producing bacteria. Table 3: Synergy of the inhibitor Ex. 1 (4 µg/mL) in combination with antibiotics

E. coli JMI 10770 = E. coli JMI 10770 (CTX-M15 (Hyper ESBL)); for MIC Aztreonam + inhibitor: Aztreonam + inhibitor at 4 µg/mL; for MIC Ceftazidime + inhibitor: Ceftazidime + inhibitor at 4 µg/mL; for MIC Meropenem + inhibitor: Meropenem + inhibitor at 4 µg/mL
Procedure: as §1

E. coli JMI 2665 = conditions: for MIC Aztreonam + inhibitor / MIC Ceftazidime + inhibitor / MIC Meropenem + inhibitor: E. coli JMI 2665 (CMY-2 (Plasmid Cpase)); for MIC Aztreonam + inhibitor: Aztreonam + inhibitor at 4 µg/mL; for MIC Ceftazidime + inhibitor: Ceftazidime + inhibitor at 4 µg/mL; for MIC Meropenem + inhibitor: Meropenem + inhibitor at 4 µg/mL; for MIC: Escherichia coli, JMI2665
Procedure: as §1

E. coli JMI 2671 = conditions: for MIC Aztreonam + inhibitor / MIC Ceftazidime + inhibitor / MIC Meropenem + inhibitor: E. coli JMI 2671 (VIM-19 (Cpase)); for MIC Aztreonam + inhibitor: Aztreonam + inhibitor at 4 µg/mL; for MIC Ceftazidime + inhibitor: Ceftazidime + inhibitor at 4 µg/mL; for MIC Meropenem + inhibitor: Meropenem + inhibitor at 4 µg/mL; for MIC: Escherichia coli, JMI2671, E. coli JMI 2671 (VIM-19 (Cpase)), substance alone
Procedure, shortened: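 Each antibiotic's minimum inhibitory concentration is reported when tested alongside inhibitor at 4 µg/mL. Strains carry metallo β-lactamases.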

K. pneumo JMI 2674 = K. pneumo JMI 2674 (CTX-M15 (ESBL)); for MIC Aztreonam + inhibitor: Aztreonam + inhibitor at 4 µg/mL; for MIC Ceftazidime + inhibitor: Ceftazidime + inhibitor at 4 µg/mL; for MIC Meropenem + inhibitor: Meropenem + inhibitor at 4 µg/mL
Procedure, shortened: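 Antibacterial activity was assessed as minimum inhibitory concentrations against a β-lactamase-producing bacterial strain. Each test inhibitor was combined with an antibiotic, with the inhibitor held at a fixed 4 µg/mL, to determine whether it acted synergistically and restored the antibiotic's effect against the resistant organism.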

K. pneumo JMI 4088 = K. pneumo JMI 4088 (KPC-3 (Cpase)); for MIC Aztreonam + inhibitor: Aztreonam + inhibitor at 4 µg/mL; for MIC Ceftazidime + inhibitor: Ceftazidime + inhibitor at 4 µg/mL; for MIC Meropenem + inhibitor: Meropenem + inhibitor at 4 µg/mL
Procedure, shortened: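 The compound was tested for synergy by combining it with antibiotics and measuring minimum inhibitory concentrations against β-lactamase producing bacteria. The inhibitor was present at a fixed concentration of 4 µg/mL together with the partner antibiotic, and MIC values were recorded.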

K.pneumo JMI 4109 = K.pneumo JMI 4109 (SHV-1, SHV-12); for MIC Aztreonam + inhibitor: Aztreonam + inhibitor at 4 µg/mL; for MIC Ceftazidime + inhibitor: Ceftazidime + inhibitor at 4 µg/mL; for MIC Meropenem + inhibitor: Meropenem + inhibitor at 4 µg/mL
Procedure, shortened: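 Antibacterial synergy was assessed by pairing each inhibitor compound, at a constant concentration of 4 µg/mL, with β-lactam antibiotics. The combinations were run against bacterial strains that produce β-lactamases, and the readout was the minimum inhibitory concentration of the antibiotic in the presence of the inhibitor.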

K. pneumo JMI 2673 = K. pneumo JMI 2673 (CTX-M14 (ESBL)); substance alone

Row | SMILES | MIC Aztreonam + inhibitor (E. coli JMI 4080) | MIC Ceftazidime + inhibitor (E. coli JMI 4080) | MIC Meropenem + inhibitor (E. coli JMI 4080) | MIC (E. coli JMI 4080) | MIC Aztreonam + inhibitor (E. coli JMI 10767) | MIC Ceftazidime + inhibitor (E. coli JMI 10767) | MIC Aztreonam + inhibitor (E. coli JMI 10770) | MIC Ceftazidime + inhibitor (E. coli JMI 10770) | MIC Meropenem + inhibitor (E. coli JMI 10770) | MIC Aztreonam + inhibitor (E. coli JMI 2665) | MIC Ceftazidime + inhibitor (E. coli JMI 2665) | MIC Meropenem + inhibitor (E. coli JMI 2665) | MIC (E. coli JMI 2665) | MIC Aztreonam + inhibitor (E. coli JMI 2671) | MIC Ceftazidime + inhibitor (E. coli JMI 2671) | MIC Meropenem + inhibitor (E. coli JMI 2671) | MIC (E. coli JMI 2671) | MIC Aztreonam + inhibitor (K. pneumo JMI 2674) | MIC Ceftazidime + inhibitor (K. pneumo JMI 2674) | MIC Meropenem + inhibitor (K. pneumo JMI 2674) | further results
1 | O=C(NO[C@H]1CCNC1)[C@@H]1CC[C@@H]2CN1C(=O)N2OS(=O)(=O)O [Ex. 1, (2S,5R)-7-Oxo-N-[(3S)-pyrrolidin-3-yloxy]-6-(sulfooxy)-1,6-diazabicyclo[3.2.1]octane-2-carboxamide] | 1 µg/mL | 1 µg/mL | ≤.031 µg/mL | 8 µg/mL | ≤.062 µg/mL | ≤0.25 µg/mL | ≤.062 µg/mL | ≤0.25 µg/mL | ≤.031 µg/mL | ≤.062 µg/mL | ≤0.25 µg/mL | ≤.031 µg/mL | 4 µg/mL | ≤.062 µg/mL | 2 µg/mL | 2 µg/mL | 4 µg/mL | ≤.062 µg/mL | ≤0.25 µg/mL | 0.062 µg/mL | MIC Aztreonam + inhibitor (K. pneumo JMI 4088): ≤.062 µg/mL; MIC Ceftazidime + inhibitor (K. pneumo JMI 4088): ≤0.25 µg/mL; MIC Meropenem + inhibitor (K. pneumo JMI 4088): 0.062 µg/mL; MIC Aztreonam + inhibitor (K.pneumo JMI 4109): ≤.062 µg/mL; MIC Ceftazidime + inhibitor (K.pneumo JMI 4109): ≤0.25 µg/mL; MIC Meropenem + inhibitor (K.pneumo JMI 4109): ≤.031 µg/mL; MIC (K. pneumo JMI 2673): > 16 µg/mL
2 | O=C(NO[C@H]1CCCNC1)[C@@H]1CC[C@@H]2CN1C(=O)N2OS(=O)(=O)O [Ex. 2, (2S,5R)-7-Oxo-N-[(3S)-piperidin-3-yloxy] -6-(sulfooxy)-1,6-diazabicyclo[3.2.1]octane-2-carboxamide] | ≤.062 µg/mL | ≤0.25 µg/mL | ≤.031 µg/mL | 4 µg/mL | ≤.062 µg/mL | ≤0.25 µg/mL | ≤.062 µg/mL | ≤0.25 µg/mL | ≤.031 µg/mL | ≤.062 µg/mL | ≤0.25 µg/mL | ≤.031 µg/mL | ≤ 0.5 µg/mL | ≤.062 µg/mL | 0.5 µg/mL | 0.125 µg/mL | > 16 µg/mL | 0.125 µg/mL | ≤0.25 µg/mL | 0.125 µg/mL | MIC Aztreonam + inhibitor (K. pneumo JMI 4088): 0.5 µg/mL; MIC Ceftazidime + inhibitor (K. pneumo JMI 4088): ≤0.25 µg/mL; MIC Meropenem + inhibitor (K. pneumo JMI 4088): 0.062 µg/mL; MIC Aztreonam + inhibitor (K.pneumo JMI 4109): ≤.062 µg/mL; MIC Ceftazidime + inhibitor (K.pneumo JMI 4109): ≤0.25 µg/mL; MIC Meropenem + inhibitor (K.pneumo JMI 4109): ≤.031 µg/mL; MIC (K. pneumo JMI 2673): > 16 µg/mL
